Reference: paper PMC12040169 (PLOS Biology, 2025)

Assay: in vitro
Settings: human, hela cells, % viability

| Compound | viability at 28.5 h, 10 µM [%] | viability at 28.5 h, 10 µM (bulk resorufin, single well) [%] |
| --- | --- | --- |
| O=C(O)C1C2C=CC(C2)C1C(=O)NCc1ccncc1 (stereo not shown) [CBK265403] | 102 |  |
| COc1ccc(-c2noc([C@@H]3C[C@H](NC(=O)c4ccc(F)cc4)CN3C)n2)cc1 [CBK288861] | 118 |  |
| Cc1cc(CN(C)Cc2ccc3c(c2)n(C)c(=O)n3C)n[nH]1 [CBK281705] | 101 |  |
| O=C(Nc1ccc2oc(-c3cccnc3)nc2c1)c1cccc(-c2cc3ccccc3oc2=O)c1 [CBK268612] | 89.3 |  |
| CN(C)CCOC(=O)c1ccc(S(=O)(=O)N(C)C)o1 [CBK264273C] | 100 |  |
| COC(=O)CCc1ccc(S(=O)(=O)N2CCCN(Cc3c[nH]c(=O)[nH]c3=O)CC2)cc1 [CBK063082] | 113 |  |
| O=C(CCCc1ccccc1)Nc1cccnc1N1CCNCC1 [CBK028256T] | 93.1 |  |
| CN(C)Cc1c(O)ccc2occ(C(=O)c3ccccc3)c12 [CBK261965] | 94 |  |
| CN1CCN(c2ccccc2NC(=O)c2ccc3ccccc3c2)CC1 [CBK268486] | 96.1 |  |
| C[C@@H](c1ccccc1)n1c(=O)[nH]c2ncc(-c3cccc(C(=O)NCCN(C)C)c3)nc21 [CBK064376] | 103 |  |
| O=C(CSc1nnc(-c2cccc(Br)c2)o1)Nc1cccc([N+](=O)[O-])c1 [CBK264212] | 101 |  |
| COc1ccc(Nc2nc(Cl)nc(NCCN3CCOCC3)n2)cc1 [CBK027610] | 104 |  |
| CCCC(=O)Nc1ccc(OCc2ncc(C(C)(C)C)o2)c(C(C)=O)c1 [CBK305218] | 86.2 |  |
| CC1CCN(S(=O)(=O)c2ccc(Cl)c(C(=O)Nc3ccc(C(=O)O)cc3)c2)CC1 [CBK265170] | 111 |  |
| CC(C)(C)n1cc2c(n1)[C@H]1CN(C(=O)CN3CCCC3=O)C[C@H]1CC2 [CBK283401] | 89.2 |  |
| CN1CCN(c2cc(N3CCN(C(=O)c4ccc(F)cc4F)CC3)c([N+](=O)[O-])cc2F)CC1 [CBK265280] | 95.1 |  |
| c1cnc2[nH]c([C@H]3CCCO3)c(CN3CCCCC3)c2c1 [CBK282284] | 87.7 |  |
| Cn1c2ccccc2c2nnc(SCCCC(=O)c3ccc4c(c3)OCCO4)nc21 [CBK268750] | 97.5 |  |
| CC(C)N1CCC2(C/C=C/CNC(=O)c3ccccc3OCCNC2=O)CC1 [CBK292094] | 98.7 |  |
| C#CCOc1cc(Br)c(/C=C(/C#N)c2ccc([N+](=O)[O-])cc2)cc1OCC [CBK266617] | 104 |  |
| Cc1cccc(NC(=O)C(CC(=O)O)NCc2ccccc2)c1 (stereo not shown) [CBK266821] | 87.3 |  |
| NCCN(Cc1cccc(Cl)c1)C(=O)NC(c1ccccc1)c1ccccc1 [CBK046203C] | 90.8 |  |

| Compound | viability at 28.5 h, 10 µM [%] | viability at 28.5 h, 10 µM (bulk resorufin, single well) [%] |
| --- | --- | --- |
| COc1ccc(C(=O)NC(NC(=S)Nc2cccc3cccnc23)C(Cl)(Cl)Cl)cc1 (stereo not shown) [CBK261028] | 94.6 |  |
| C(=C\c1ccccc1)/CN1CCN(c2ncccn2)CC1 [CBK261909] | 92.3 |  |
| COc1ccc2oc(=O)c(C(=O)Nc3cccc(O)c3)cc2c1 [CBK270070] | 87.3 |  |
| CC(C)(C)c1nsc(NC2CCCCCC2)n1 [CBK075061] | 96.6 |  |
| COc1cccc(CN2CCN(Cc3ccco3)[C@@H](C)C2)c1 [CBK284265] | 80.3 |  |
| O=C(CSc1nnc(-c2ccncc2)n1-c1ccccc1)c1ccc(Br)cc1 [CBK266758] | 93.9 |  |
| CN1CCC[C@H]1c1nc(-c2ccc(-n3ccnc3)nc2)no1 [CBK288893] | 96.6 |  |
| CN1C(=O)c2ccccc2OCCCCC[C@H]2NCCC[C@H]21 [CBK292075] | 110 |  |
| CS(=O)(=O)c1ccc(Cn2ccnc(OC3CCN(C(=O)c4ccc(C#N)cc4)CC3)c2=O)cc1 [CBK161804] | 92.4 |  |
| Cc1nn(C)c2ncc(S(=O)(=O)NCC(N)c3ccc(F)cc3F)cc12 (stereo not shown) [CBK304303C] | 99.1 |  |
| O=C(Nc1nccs1)c1cccc(Cl)c1Cl [CBK058011] | 112 |  |
| CC(C)CCc1c(O)nc(SCCN(C)C)[nH]c1=O [CBK263382] | 95.3 |  |
| O=C(NC(c1ccc(Cl)cc1)c1cnccn1)C1CCN(Cc2ccc(Oc3ccccc3)cc2)CC1 (stereo not shown) [CBK148023] | 108 |  |
| CCC(C)c1ccc(NC(S)=NCc2ccccn2)cc1 (stereo not shown) [CBK266966] | 89.2 |  |
| CC(=O)N1CCc2c(sc(NC(=O)c3ccc(N(C)C)cc3)c2C#N)C1 [CBK304333] | 94.7 |  |
| CN1CCCC1CCOc1ncccc1OCc1ccccc1 (stereo not shown) [CBK036313] | 93.1 |  |
| CCCCCn1c(Cc2ccccc2)n[nH]c1=O [CBK013059] | 98.3 |  |
| O=C(NCc1cc[nH]n1)N1CCCN(Cc2cccs2)CC1 [CBK305645] | 82 |  |
| FC(F)(F)C1CN(C2CCCCC2)C(=S)S1 (stereo not shown) [CBK009719] | 84.2 |  |
| Cc1cc(COc2nc3ccccc3nc2NCCCCO)no1 [CBK173985] | 94.1 |  |
| COc1ccc(CCN2C(=O)CC(N3CCN(Cc4ccc5c(c4)OCO5)CC3)C2=O)cc1OC (stereo not shown) [CBK074555] | 88 |  |
| O=C(O)c1cccc(NS(=O)(=O)c2ccc3c(c2)OCCO3)c1 [CBK155697] | 96.9 |  |

| Compound | viability at 28.5 h, 10 µM [%] | viability at 28.5 h, 10 µM (bulk resorufin, single well) [%] |
| --- | --- | --- |
| Cn1c(C2CC2)nc2c1CCN(Cc1cc(=O)n(C)c(=O)n1C)C2 [CBK304025] | 115 |  |
| CC(C)(C)OC(=O)NCCc1ccc(Nc2cc(-c3ccc4c(c3)OCO4)ncn2)cc1 [CBK090957] | 92.5 |  |
| CCN(CC)CCn1c2ccccc2c2nc(C)sc21 [CBK266628C] | 100 |  |
| O=C(CCN1C(=O)/C(=C\c2cccs2)SC1=S)Nc1cc(Cl)ccc1O [CBK263643] | 98.2 |  |
| Cc1cc(NC(=O)c2sc3nc4c(cc3c2N)N2CCC4CC2)no1 [CBK270217] | 100 |  |
| c1ccc(OCc2nn3c(Cn4nnc5ccccc54)nnc3s2)cc1 [CBK268330] | 95.9 |  |
| O=C1NC2(CCCCCC2)C(=O)N1Cc1cnn(-c2ccccc2)n1 [CBK305571] | 100 |  |
| COc1cc([N+](=O)[O-])c2[nH]c(C(=O)O)c(CCNC(C)=O)c2c1 [CBK260895] | 105 |  |
| COc1cc(C)nc(OCCNS(=O)(=O)c2cc(C)ccc2C)n1 [CBK058870] | 91.9 |  |
| CCN(CC)c1c(C)nc2ccc(C(=O)N3CCN(C)CC3)cn12 [CBK145955] | 91.5 |  |
| COc1ccc(N2C(=O)CC(NNC(=O)CNC(C)=O)C2=O)cc1 (stereo not shown) [CBK267228] | 87.7 |  |
| COc1cc(NS(=O)(=O)c2ccc(NC(=O)c3ccc(C)o3)cc2)nc(OC)n1 [CBK268182] | 91.6 |  |
| CC(=O)NC(c1nccs1)C1CCCN(C(=O)C2CCCC2)C1 (stereo not shown) [CBK284966] | 101 |  |
| Cn1cccc1C(=O)N1CCC(OCc2cnc(-c3ccc(S(C)(=O)=O)cc3)cn2)CC1 [CBK172007] | 106 |  |
| CC(c1cc2ccccc2s1)N(O)C(N)=O (stereo not shown) [CBK008078] | 98.2 |  |
| CC(C)c1ccsc1C(=O)N1CCC2(C1)NC(=O)NC2=O (stereo not shown) [CBK305188] | 87.1 |  |
| O=C(Nc1ccc(-c2ccoc2)cc1C(=O)O)OCc1ccc([N+](=O)[O-])cc1 [CBK000141D] | 98.9 |  |
| COc1ccc(C(CCN)c2ccccc2OC)cc1 (stereo not shown) [CBK266125] | 103 |  |
| Cn1cc(CNC(=O)Nc2cccc(CN3CCCCC3=O)c2)cn1 [CBK305062] | 91.4 |  |
| C/C(=C(/C(=O)N(N)c1nc2ccccc2s1)C(=O)C(F)(F)F)N1CCC(C(N)=O)CC1 [CBK265758] | 87.7 |  |
| CC(=O)N1CCN(c2cc(-c3noc([C@@H]4CCCN4C4CCOCC4)n3)ccn2)CC1 [CBK288879] | 88 |  |
| O=C(O)c1cc2cc(F)ccc2[nH]1 [CBK017929] | 86.3 |  |

| Compound | viability at 28.5 h, 10 µM [%] | viability at 28.5 h, 10 µM (bulk resorufin, single well) [%] |
| --- | --- | --- |
| CCOC(=O)c1c(-c2ccc(OC)cc2)noc1C(O)c1ccccc1 (stereo not shown) [CBK002296] | 90.6 |  |
| O=c1c2c3c(sc2ncn1CC(O)COc1ccc(F)cc1)CCC3 (stereo not shown) [CBK295191] | 102 |  |
| Cc1ccc2cc(S(=O)(=O)NCCC(=O)O)ccc2c1 [CBK267569] | 96.5 |  |
| CC1CCN(CCN2CCn3c2nc2ccccc23)CC1 [CBK265467B] | 80 |  |
| CSc1nnc(CC2CCN(C(=O)c3cccc(N)c3)CC2)n1C [CBK307339] | 77.8 |  |
| CN(CCN(C)/N=C/c1c2ccccc2cc2ccccc12)/N=C/c1c2ccccc2cc2ccccc12 [CBK262039] | 94.8 |  |
| O=C(Nc1ccc(S(=O)(=O)Nc2ccc(Cl)c(C(F)(F)F)c2)cc1)c1ccc(CN2CCOCC2)cc1 [CBK264777] | 104 |  |
| COc1ccccc1C(NC(=O)N(C(C)C)C(C)C)c1nccn1C (stereo not shown) [CBK283834] | 81.9 |  |
| Cc1ccc(C(=O)N2CCN(C(=O)CN3CCN(C)CC3)C2)cc1 [CBK024841C] | 76.4 |  |
| COc1ccc(Cl)cc1S(=O)(=O)NC(C)C(=O)O (stereo not shown) [CBK270233] | 106 |  |
| NS(=O)(=O)c1ccc(NC(=S)NNC(=S)Nc2ccc(F)cc2F)cc1 [CBK267102] | 93.3 |  |
| Clc1cc(Nc2cccc(OCc3ccccc3)c2)n2nccc2n1 [CBK037109] | 92.2 |  |
| N#C/C(=C\c1ccc(-c2ccc(C(=O)O)c(O)c2)o1)c1nc2ccccc2[nH]1 [CBK262121] | 91.7 |  |
| COc1ccc(C2CCN(C(=O)C3CCCO3)CC2)cc1 (stereo not shown) [CBK285473] | 102 |  |
| Cc1ccnc(SCC(N)=O)n1 [CBK028874] | 96.1 |  |
| CC(=C\C(=O)O)/C(=C\c1ccc(Br)cc1)C(=O)O [CBK278280N] | 88.1 |  |
| CCN1C(=O)C(F)(CC)C(=O)c2ccccc21 (stereo not shown) [CBK098854] | 107 |  |
| O=S(=O)(Nc1ccc(-c2nc3cccnc3s2)cc1)c1ccccc1 [CBK287547] | 116 |  |
| CN(Cc1ccc(O)cc1)C(=O)NC1CCCc2c1cnn2CCO (stereo not shown) [CBK305354] | 86.3 |  |
| CSc1nccc(N2CCC(NCCn3c(C)cc(C)nc3=O)CC2)n1 [CBK307070] | 85.3 |  |
| COc1ccc(S(=O)(=O)N2Cc3ccccc3CC2C(=O)Nc2ccc(O)cc2)cc1OC (stereo not shown) [CBK293967] | 90.9 |  |
| COc1cc(-c2ccc3c(c2)OC2(CCNCC2)O3)ccn1 [CBK091454] |  | 106 |
